# According to ChEMBL document CHEMBL1201861, “Genomics of Drug Sensitity in Cancer screening data, Wellcome Trust Sanger Institute”:
# Columns and labels:
# Assay in all cases: cells
# [1] = tested on: SKG-IIIa; format: functional, cell-based; details: Homo sapiens;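 also: cell growth inhibition, read out with a cell viability assay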
# Description: SANGER: Inhibition of human SKG-IIIa cell growth in a cell viability assay.
# [2] = tested on: NCI-H1693; format: functional, cell-based; details: Homo sapiens;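 also: growth inhibition of the human cell line, read out with a cell viability assay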
# Description: SANGER: Inhibition of human NCI-H1693 cell growth in a cell viability assay.
# [3] = tested on: FTC-133; format: functional, cell-based; details: Homo sapiens
# [4] = tested on: HuP-T3; format: functional, cell-based; details: Homo sapiens;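 also: HuP-T3 cell growth inhibition, read out with a cell viability assay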
# Description: SANGER: Inhibition of human HuP-T3 cell growth in a cell viability assay.
# [5] = tested on: NCI-H2342; format: functional, cell-based; details: Homo sapiens;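 also: growth inhibition of the cancer cell line, determined with a cell viability assay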
# Description: SANGER: Inhibition of human NCI-H2342 cell growth in a cell viability assay.
# [6] = tested on: HT-1080; format: functional, cell-based; details: Homo sapiens
# Description: SANGER: Inhibition of human HT-1080 cell growth in a cell viability assay.
# [7] = tested on: T84; format: functional, cell-based; details: Homo sapiens;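 also: growth inhibition measured with a cell viability readout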
# Description: SANGER: Inhibition of human T84 cell growth in a cell viability assay.
# [8] = tested on: A673; format: functional, cell-based; details: Homo sapiens;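 also: growth inhibition of human A673 cells, read out through a cell viability assay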
# Description: SANGER: Inhibition of human A673 cell growth in a cell viability assay.
# [9] = tested on: CHL-1; format: functional, cell-based; details: Homo sapiens;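 also: cell growth inhibition, read out with a cell viability assay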
# Description: SANGER: Inhibition of human CHL-1 cell growth in a cell viability assay.
# [10] = tested on: UMUC3; format: functional, cell-based; details: Homo sapiens;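 also: growth inhibition of human UM-UC-3 cells, read out with a cell viability assay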
# Description: SANGER: Inhibition of human UM-UC-3 cell growth in a cell viability assay.
# [11] = tested on: HOP-92; format: functional, cell-based; details: Homo sapiens;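 also: cell viability readout, with IC50 reflecting inhibition of HOP-92 cell growth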
# Description: SANGER: Inhibition of human HOP-92 cell growth in a cell viability assay.
# [12] = tested on: SK-N-AS; format: functional, cell-based; details: Homo sapiens;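 also: growth inhibition of human SK-N-AS cells, measured with a cell viability assay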
# Description: SANGER: Inhibition of human SK-N-AS cell growth in a cell viability assay.
# [13] = tested on: OVCAR-5; format: functional, cell-based; details: Homo sapiens;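 also: growth inhibition of human OVCAR-5 cells, read out with a cell viability assay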
# Description: SANGER: Inhibition of human OVCAR-5 cell growth in a cell viability assay.
# [14] = tested on: KYSE-510; format: functional, cell-based; details: Homo sapiens;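 also: cell viability readout used to measure how strongly growth of the cell line is suppressed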
# Description: SANGER: Inhibition of human KYSE-510 cell growth in a cell viability assay.
# [15] = tested on: COLO-680N; format: functional, cell-based; details: Homo sapiens;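 also: cell viability assay used to measure inhibition of COLO-680N cell growth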
# Description: SANGER: Inhibition of human COLO-680N cell growth in a cell viability assay.
# [16] = tested on: 5637; format: functional, cell-based; details: Homo sapiens
# Description: SANGER: Inhibition of human 5637 cell growth in a cell viability assay.
# [17] = tested on: ESS-1; format: functional, cell-based; details: Homo sapiens;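 also: growth inhibition of human ESS-1 cells, read out by a cell viability assay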
# Description: SANGER: Inhibition of human ESS-1 cell growth in a cell viability assay.
# [18] = tested on: HOS; format: functional, cell-based; details: Homo sapiens;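 also: growth inhibition of human HOS cells, read out with a cell viability assay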
# Description: SANGER: Inhibition of human HOS cell growth in a cell viability assay.
# [19] = tested on: NCI-H441; format: functional, cell-based; details: Homo sapiens;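 also: growth inhibition of NCI-H441 cells, read out with a cell viability assay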
# Description: SANGER: Inhibition of human NCI-H441 cell growth in a cell viability assay.
# [20] = tested on: GMS-10; format: functional, cell-based; details: Homo sapiens;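 also: growth inhibition of GMS-10 cells, read out as cell viability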
# Description: SANGER: Inhibition of human GMS-10 cell growth in a cell viability assay.
# [21] = tested on: BXPC-3; format: functional, cell-based; details: Homo sapiens;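 also: growth inhibition of human BxPC-3 cells, read out by a cell viability assay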
# Description: SANGER: Inhibition of human BxPC-3 cell growth in a cell viability assay.
# [22] = tested on: CP50-MEL-B; format: functional, cell-based; details: Homo sapiens;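 also: growth inhibition of the human cell line, measured with a cell viability read-out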
# Description: SANGER: Inhibition of human CP50-MEL-B cell growth in a cell viability assay.
# [23] = tested on: MFE-280; format: functional, cell-based; details: Homo sapiens;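 also: growth inhibition of MFE-280 cells, determined with a cell viability readout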
# Description: SANGER: Inhibition of human MFE-280 cell growth in a cell viability assay.
# [24] = tested on: U-251; format: functional, cell-based; details: Homo sapiens;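 also: growth inhibition of human U-251 cells, read out through a cell viability assay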
# Description: SANGER: Inhibition of human U251 cell growth in a cell viability assay.
# [25] = tested on: U2OS; format: functional, cell-based, U-2-OS; details: Homo sapiens;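 also: growth inhibition of human U-2-OS cells, determined with a cell viability assay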
# Description: SANGER: Inhibition of human U-2-OS cell growth in a cell viability assay.
# [26] = tested on: SJRH30; format: functional, cell-based; details: Homo sapiens;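 also: growth inhibition of human SJRH30 cells, read out with a cell viability assay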
# Description: SANGER: Inhibition of human SJRH30 cell growth in a cell viability assay.
# [27] = tested on: BFTC-905; format: functional, cell-based; details: Homo sapiens
# Description: SANGER: Inhibition of human BFTC-905 cell growth in a cell viability assay.
# [28] = tested on: SCC-4; format: functional, cell-based; details: Homo sapiens;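 also: growth inhibition of human SCC-4 cells, read out as cell viability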
# Description: SANGER: Inhibition of human SCC-4 cell growth in a cell viability assay.
# [29] = tested on: CAMA-1; format: functional, cell-based; details: Homo sapiens;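 also: growth inhibition of CAMA-1 cells, read out with a cell viability assay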
# Description: SANGER: Inhibition of human CAMA-1 cell growth in a cell viability assay.
# [30] = tested on: NCI-H1623; format: functional, cell-based; details: Homo sapiens;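 also: cell viability assay used as the read-out for growth inhibition of NCI-H1623 cells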
# Description: SANGER: Inhibition of human NCI-H1623 cell growth in a cell viability assay.
# [31] = tested on: ABC-1; format: functional, cell-based; details: Homo sapiens;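 also: growth inhibition of human ABC-1 cells, read out by a cell viability assay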
# Description: SANGER: Inhibition of human ABC-1 cell growth in a cell viability assay.
# [32] = tested on: HuCCT-1; format: functional, cell-based, HuCCT1; details: Homo sapiens;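 also: growth inhibition of HuCCT-1 cells, read out by a cell viability assay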
# Description: SANGER: Inhibition of human HuCCT1 cell growth in a cell viability assay.
# [33] = tested on: FaDu; format: functional, cell-based; details: Homo sapiens;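 also: cell viability readout of growth inhibition in FaDu cells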
# Description: SANGER: Inhibition of human FADU cell growth in a cell viability assay.
# [34] = tested on: SW837; format: functional, cell-based; details: Homo sapiens;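 also: growth inhibition of SW837 cells, determined with a cell viability assay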
# Description: SANGER: Inhibition of human SW837 cell growth in a cell viability assay.
# [35] = tested on: TYK-nu; format: functional, cell-based; details: Homo sapiens;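 also: growth inhibition of human TYK-nu cells, read out by a cell viability assay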
# Description: SANGER: Inhibition of human TYK-nu cell growth in a cell viability assay.
# [36] = tested on: SW1088; format: functional, cell-based; details: Homo sapiens;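 also: growth inhibition of human SW1088 cells, read out by a cell viability assay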
# Description: SANGER: Inhibition of human SW1088 cell growth in a cell viability assay.
# [37] = tested on: BEN; format: functional, cell-based; details: Homo sapiens;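 also: growth inhibition of the BEN cell line, read out with a cell viability assay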
# Description: SANGER: Inhibition of human BEN cell growth in a cell viability assay.
# [38] = tested on: COR-L23; format: functional, cell-based; details: Homo sapiens;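 also: cell viability assay measuring how strongly compounds suppress growth of COR-L23 cells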
# Description: SANGER: Inhibition of human COR-L23 cell growth in a cell viability assay.
# [39] = tested on: SK-MES-1; format: functional, cell-based; details: Homo sapiens;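 also: growth inhibition of human SK-MES-1 cells, read out with a cell viability assay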
# Description: SANGER: Inhibition of human SK-MES-1 cell growth in a cell viability assay.
# [40] = tested on: SCC-9; format: functional, cell-based; details: Homo sapiens;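 also: Read-out is a cell viability assay, with values giving inhibition of cell growth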
# Description: SANGER: Inhibition of human SCC-9 cell growth in a cell viability assay.
# [41] = tested on: NCI-H2452; format: functional, cell-based; details: Homo sapiens;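 also: growth inhibition of NCI-H2452 cells, read out with a cell viability assay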
# Description: SANGER: Inhibition of human NCI-H2452 cell growth in a cell viability assay.
# [42] = tested on: CWR22R; format: functional, cell-based; details: Homo sapiens, 22Rv1;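 also: growth inhibition of 22Rv1 cells, read out with a cell viability assay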
# Description: SANGER: Inhibition of human 22RV1 cell growth in a cell viability assay.
# [43] = tested on: MFH-ino; format: functional, cell-based, Homo sapiens; details: Homo sapiens, MFH-ino;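 also: growth inhibition of human MFH-ino cells, read out by a cell viability assay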
# Description: SANGER: Inhibition of human MFH-ino cell growth in a cell viability assay.
# [44] = tested on: HuTu80; format: functional, cell-based, Homo sapiens, HUTU-80; details: Homo sapiens, HuTu80;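 also: growth inhibition of HuTu80 human cells, determined with a cell viability readout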
# Description: SANGER: Inhibition of human HUTU-80 cell growth in a cell viability assay.
# [45] = tested on: KMOE-2; format: functional, cell-based, Homo sapiens; details: Homo sapiens, KMOE-2;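 also: growth inhibition of human KMOE-2 cells, read out with a cell viability assay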
# Description: SANGER: Inhibition of human KMOE-2 cell growth in a cell viability assay.
smiles,measurement,setting,value
CC1(C)CCC(c2ccc(Cl)cc2)=C(CN2CCN(c3ccc(C(=O)NS(=O)(=O)c4ccc(N[C@H](CCN5CCOCC5)CSc5ccccc5)c(S(=O)(=O)C(F)(F)F)c4)cc3)CC2)C1 [NAVITOCLAX],IC50,[1],> 2 µM
same,IC50,[2],> 2 µM
same,IC50,[3],> 2 µM
same,IC50,[4],> 2 µM
same,IC50,[5],1.4 µM
same,IC50,[6],> 2 µM
same,IC50,[7],> 2 µM
same,IC50,[8],> 2 µM
same,IC50,[9],> 2 µM
same,IC50,[10],> 2 µM
same,IC50,[11],> 2 µM
same,IC50,[12],> 2 µM
same,IC50,[13],> 2 µM
same,IC50,[14],> 2 µM
same,IC50,[15],> 2 µM
same,IC50,[16],> 2 µM
same,IC50,[17],> 2 µM
same,IC50,[18],> 2 µM
same,IC50,[19],> 2 µM
same,IC50,[20],> 2 µM
same,IC50,[21],> 2 µM
same,IC50,[22],> 2 µM
same,IC50,[23],> 2 µM
same,IC50,[24],> 2 µM
same,IC50,[25],> 2 µM
same,IC50,[26],> 2 µM
same,IC50,[27],> 2 µM
same,IC50,[28],1.6 µM
same,IC50,[29],> 2 µM
same,IC50,[30],> 2 µM
same,IC50,[31],> 2 µM
same,IC50,[32],> 2 µM
same,IC50,[33],> 2 µM
same,IC50,[34],> 2 µM
same,IC50,[35],> 2 µM
same,IC50,[36],> 2 µM
same,IC50,[37],0.24 µM
same,IC50,[38],1.8 µM
same,IC50,[39],> 2 µM
same,IC50,[40],> 2 µM
same,IC50,[41],> 2 µM
same,IC50,[42],> 2 µM
O=C1NC(=O)c2c1c(-c1ccccc1Cl)cc1[nH]c3ccc(O)cc3c21,IC50,[1],> 2 µM
same,IC50,[2],> 2 µM
same,IC50,[3],> 2 µM
same,IC50,[4],> 2 µM
same,IC50,[5],> 2 µM
same,IC50,[6],1.2 µM
same,IC50,[7],> 2 µM
same,IC50,[8],> 2 µM
same,IC50,[9],1.05 µM
same,IC50,[10],> 2 µM
same,IC50,[11],1 µM
same,IC50,[12],1.81 µM
same,IC50,[14],> 2 µM
same,IC50,[15],> 2 µM
same,IC50,[16],> 2 µM
same,IC50,[17],> 2 µM
same,IC50,[18],> 2 µM
same,IC50,[19],> 2 µM
same,IC50,[20],> 2 µM
same,IC50,[21],> 2 µM
same,IC50,[22],> 2 µM
same,IC50,[23],> 2 µM
same,IC50,[24],> 2 µM
same,IC50,[25],1.27 µM
same,IC50,[26],> 2 µM
same,IC50,[27],1.62 µM
same,IC50,[28],> 2 µM
same,IC50,[29],> 2 µM
same,IC50,[30],> 2 µM
same,IC50,[31],> 2 µM
same,IC50,[32],> 2 µM
same,IC50,[33],> 2 µM
same,IC50,[34],> 2 µM
same,IC50,[36],> 2 µM
same,IC50,[37],> 2 µM
same,IC50,[38],0.752 µM
same,IC50,[39],1.72 µM
same,IC50,[40],> 2 µM
same,IC50,[41],> 2 µM
same,IC50,[42],> 2 µM
O=C(NCCCNc1nc(Nc2cccc(NC(=O)N3CCCC3)c2)ncc1I)c1cccs1 [BX-795],IC50,[1],> 5 µM
same,IC50,[2],> 5 µM
same,IC50,[3],3.02 µM
same,IC50,[4],> 5 µM
same,IC50,[5],> 5 µM
same,IC50,[6],> 5 µM
same,IC50,[7],> 5 µM
same,IC50,[8],> 5 µM
same,IC50,[9],1.92 µM
same,IC50,[10],> 5 µM
same,IC50,[11],1.27 µM
same,IC50,[12],> 5 µM
same,IC50,[13],2.28 µM
same,IC50,[14],4.96 µM
same,IC50,[15],> 5 µM
same,IC50,[16],> 5 µM
same,IC50,[17],> 5 µM
same,IC50,[18],1.57 µM
same,IC50,[19],> 5 µM
same,IC50,[20],4.12 µM
same,IC50,[21],> 5 µM
same,IC50,[22],> 5 µM
same,IC50,[23],2.57 µM
same,IC50,[24],> 5 µM
same,IC50,[25],1.59 µM
same,IC50,[26],> 5 µM
same,IC50,[27],1.08 µM
same,IC50,[28],> 5 µM
same,IC50,[29],> 5 µM
same,IC50,[30],> 5 µM
same,IC50,[31],4.81 µM
same,IC50,[32],> 5 µM
same,IC50,[33],> 5 µM
same,IC50,[34],> 5 µM
same,IC50,[35],2.93 µM
same,IC50,[36],2 µM
same,IC50,[37],> 5 µM
same,IC50,[38],4.02 µM
same,IC50,[39],2.96 µM
same,IC50,[40],> 5 µM
same,IC50,[41],4.83 µM
same,IC50,[42],> 5 µM
NC(=O)Nc1cc(-c2cccc(F)c2)sc1C(=O)N[C@H]1CCCNC1 [AZD-7762],IC50,[1],0.65 µM
same,IC50,[2],1.23 µM
same,IC50,[3],0.303 µM
same,IC50,[4],0.0871 µM
same,IC50,[5],> 2 µM
same,IC50,[6],0.493 µM
same,IC50,[7],> 2 µM
same,IC50,[8],0.865 µM
same,IC50,[9],0.526 µM
same,IC50,[10],0.903 µM
same,IC50,[43],> 2 µM
same,IC50,[11],0.293 µM
same,IC50,[12],0.188 µM
same,IC50,[44],> 2 µM
same,IC50,[13],0.139 µM
same,IC50,[14],1.58 µM
same,IC50,[15],> 2 µM
same,IC50,[16],0.193 µM
same,IC50,[17],0.164 µM
same,IC50,[18],0.88 µM
same,IC50,[19],> 2 µM
same,IC50,[20],1.35 µM
same,IC50,[21],1.31 µM
same,IC50,[22],> 2 µM
same,IC50,[23],> 2 µM
same,IC50,[24],> 2 µM
same,IC50,[25],0.158 µM
same,IC50,[27],0.985 µM
same,IC50,[28],1.02 µM
same,IC50,[29],> 2 µM
same,IC50,[30],> 2 µM
same,IC50,[31],0.261 µM
same,IC50,[32],0.708 µM
same,IC50,[33],0.412 µM
same,IC50,[34],> 2 µM
same,IC50,[35],0.281 µM
same,IC50,[36],0.916 µM
same,IC50,[45],1.11 µM
same,IC50,[37],> 2 µM
same,IC50,[38],0.403 µM
same,IC50,[39],0.443 µM
same,IC50,[40],1.99 µM
same,IC50,[41],0.936 µM
same,IC50,[42],1.81 µM
